Data reported in US9636418B2 (priority 2013, dated 2017).
pIC50: −log10 of the molar value. Several values for one entry are separate records, joined by “and”; a condition that tells them apart may be missing. Equal values may be shown once.

Experiments:
Test in all cases: cell-based
hNav1.7 = hNav1.7 (Homo sapiens, UniProt Q15858); settings: IonWorks Quattro; read-out: IC50 Nav1.7
hNav1.5 = hNav1.5 (Homo sapiens, UniProt Q14524); settings: IonWorks Quattro; read-out: IC50 Nav1.5
hNav1.4 = hNav1.4 (Homo sapiens, UniProt P35499); settings: for pIC50: IonWorks Quattro, read-out: IC50 Nav1.4; for Nav1.4/Nav1.7: ratio of IonWorks Quattro IC50 values
hNav1.3 = hNav1.3 (Homo sapiens, UniProt Q9NY46); settings: IonWorks Quattro; read-out: IC50 Nav1.3
Chain of hNav1.3 (Q9NY46 whole entry): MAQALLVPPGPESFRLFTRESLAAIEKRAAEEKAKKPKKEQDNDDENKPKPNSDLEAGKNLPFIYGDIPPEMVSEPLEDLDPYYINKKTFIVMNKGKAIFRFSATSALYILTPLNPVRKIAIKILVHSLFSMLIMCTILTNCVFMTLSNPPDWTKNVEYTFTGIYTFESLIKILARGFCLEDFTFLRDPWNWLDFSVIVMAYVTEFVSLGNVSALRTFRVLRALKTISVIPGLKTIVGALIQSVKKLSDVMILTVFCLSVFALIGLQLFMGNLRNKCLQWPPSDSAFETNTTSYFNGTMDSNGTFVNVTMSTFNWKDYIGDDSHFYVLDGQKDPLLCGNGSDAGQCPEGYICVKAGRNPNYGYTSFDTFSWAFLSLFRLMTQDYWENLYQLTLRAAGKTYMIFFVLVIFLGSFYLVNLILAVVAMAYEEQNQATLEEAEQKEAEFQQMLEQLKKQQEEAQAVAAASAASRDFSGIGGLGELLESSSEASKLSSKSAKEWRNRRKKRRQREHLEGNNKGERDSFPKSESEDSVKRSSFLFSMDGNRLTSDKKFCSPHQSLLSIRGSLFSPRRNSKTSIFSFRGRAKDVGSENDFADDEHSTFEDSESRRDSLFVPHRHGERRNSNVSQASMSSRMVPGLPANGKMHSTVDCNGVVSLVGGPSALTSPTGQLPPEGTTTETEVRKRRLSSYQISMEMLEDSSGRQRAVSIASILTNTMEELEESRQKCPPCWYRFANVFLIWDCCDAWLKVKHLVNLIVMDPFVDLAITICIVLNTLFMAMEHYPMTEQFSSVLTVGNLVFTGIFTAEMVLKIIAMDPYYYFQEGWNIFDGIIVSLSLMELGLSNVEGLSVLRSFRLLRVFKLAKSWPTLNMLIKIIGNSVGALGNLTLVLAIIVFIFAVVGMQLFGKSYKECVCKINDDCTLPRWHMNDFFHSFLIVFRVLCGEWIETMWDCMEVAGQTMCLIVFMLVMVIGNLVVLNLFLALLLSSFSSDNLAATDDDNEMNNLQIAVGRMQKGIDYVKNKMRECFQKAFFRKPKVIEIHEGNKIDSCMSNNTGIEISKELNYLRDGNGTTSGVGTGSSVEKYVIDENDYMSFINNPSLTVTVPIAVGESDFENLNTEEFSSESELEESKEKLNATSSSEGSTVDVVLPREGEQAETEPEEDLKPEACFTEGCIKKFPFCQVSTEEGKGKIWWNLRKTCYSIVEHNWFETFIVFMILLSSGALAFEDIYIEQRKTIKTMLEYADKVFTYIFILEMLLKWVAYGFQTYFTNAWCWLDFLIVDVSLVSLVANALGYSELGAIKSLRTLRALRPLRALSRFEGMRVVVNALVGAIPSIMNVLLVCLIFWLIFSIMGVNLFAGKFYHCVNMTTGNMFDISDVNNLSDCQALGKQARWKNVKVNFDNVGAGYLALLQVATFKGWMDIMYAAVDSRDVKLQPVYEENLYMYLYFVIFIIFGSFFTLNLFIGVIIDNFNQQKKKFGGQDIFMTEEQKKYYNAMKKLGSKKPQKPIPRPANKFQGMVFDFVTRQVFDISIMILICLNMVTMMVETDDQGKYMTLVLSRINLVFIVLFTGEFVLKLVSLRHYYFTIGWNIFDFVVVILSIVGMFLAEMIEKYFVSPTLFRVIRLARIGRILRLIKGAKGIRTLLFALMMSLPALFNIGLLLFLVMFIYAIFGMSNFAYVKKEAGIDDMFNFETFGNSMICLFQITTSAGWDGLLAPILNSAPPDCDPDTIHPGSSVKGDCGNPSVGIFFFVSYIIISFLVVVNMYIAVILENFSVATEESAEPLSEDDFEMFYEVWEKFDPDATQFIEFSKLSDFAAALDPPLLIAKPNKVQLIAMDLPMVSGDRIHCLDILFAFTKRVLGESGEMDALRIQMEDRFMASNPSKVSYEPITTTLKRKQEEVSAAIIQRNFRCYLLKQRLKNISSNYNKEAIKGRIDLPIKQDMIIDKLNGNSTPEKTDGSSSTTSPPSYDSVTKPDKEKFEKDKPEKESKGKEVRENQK

Chain of hNav1.7 (Q15858 whole entry): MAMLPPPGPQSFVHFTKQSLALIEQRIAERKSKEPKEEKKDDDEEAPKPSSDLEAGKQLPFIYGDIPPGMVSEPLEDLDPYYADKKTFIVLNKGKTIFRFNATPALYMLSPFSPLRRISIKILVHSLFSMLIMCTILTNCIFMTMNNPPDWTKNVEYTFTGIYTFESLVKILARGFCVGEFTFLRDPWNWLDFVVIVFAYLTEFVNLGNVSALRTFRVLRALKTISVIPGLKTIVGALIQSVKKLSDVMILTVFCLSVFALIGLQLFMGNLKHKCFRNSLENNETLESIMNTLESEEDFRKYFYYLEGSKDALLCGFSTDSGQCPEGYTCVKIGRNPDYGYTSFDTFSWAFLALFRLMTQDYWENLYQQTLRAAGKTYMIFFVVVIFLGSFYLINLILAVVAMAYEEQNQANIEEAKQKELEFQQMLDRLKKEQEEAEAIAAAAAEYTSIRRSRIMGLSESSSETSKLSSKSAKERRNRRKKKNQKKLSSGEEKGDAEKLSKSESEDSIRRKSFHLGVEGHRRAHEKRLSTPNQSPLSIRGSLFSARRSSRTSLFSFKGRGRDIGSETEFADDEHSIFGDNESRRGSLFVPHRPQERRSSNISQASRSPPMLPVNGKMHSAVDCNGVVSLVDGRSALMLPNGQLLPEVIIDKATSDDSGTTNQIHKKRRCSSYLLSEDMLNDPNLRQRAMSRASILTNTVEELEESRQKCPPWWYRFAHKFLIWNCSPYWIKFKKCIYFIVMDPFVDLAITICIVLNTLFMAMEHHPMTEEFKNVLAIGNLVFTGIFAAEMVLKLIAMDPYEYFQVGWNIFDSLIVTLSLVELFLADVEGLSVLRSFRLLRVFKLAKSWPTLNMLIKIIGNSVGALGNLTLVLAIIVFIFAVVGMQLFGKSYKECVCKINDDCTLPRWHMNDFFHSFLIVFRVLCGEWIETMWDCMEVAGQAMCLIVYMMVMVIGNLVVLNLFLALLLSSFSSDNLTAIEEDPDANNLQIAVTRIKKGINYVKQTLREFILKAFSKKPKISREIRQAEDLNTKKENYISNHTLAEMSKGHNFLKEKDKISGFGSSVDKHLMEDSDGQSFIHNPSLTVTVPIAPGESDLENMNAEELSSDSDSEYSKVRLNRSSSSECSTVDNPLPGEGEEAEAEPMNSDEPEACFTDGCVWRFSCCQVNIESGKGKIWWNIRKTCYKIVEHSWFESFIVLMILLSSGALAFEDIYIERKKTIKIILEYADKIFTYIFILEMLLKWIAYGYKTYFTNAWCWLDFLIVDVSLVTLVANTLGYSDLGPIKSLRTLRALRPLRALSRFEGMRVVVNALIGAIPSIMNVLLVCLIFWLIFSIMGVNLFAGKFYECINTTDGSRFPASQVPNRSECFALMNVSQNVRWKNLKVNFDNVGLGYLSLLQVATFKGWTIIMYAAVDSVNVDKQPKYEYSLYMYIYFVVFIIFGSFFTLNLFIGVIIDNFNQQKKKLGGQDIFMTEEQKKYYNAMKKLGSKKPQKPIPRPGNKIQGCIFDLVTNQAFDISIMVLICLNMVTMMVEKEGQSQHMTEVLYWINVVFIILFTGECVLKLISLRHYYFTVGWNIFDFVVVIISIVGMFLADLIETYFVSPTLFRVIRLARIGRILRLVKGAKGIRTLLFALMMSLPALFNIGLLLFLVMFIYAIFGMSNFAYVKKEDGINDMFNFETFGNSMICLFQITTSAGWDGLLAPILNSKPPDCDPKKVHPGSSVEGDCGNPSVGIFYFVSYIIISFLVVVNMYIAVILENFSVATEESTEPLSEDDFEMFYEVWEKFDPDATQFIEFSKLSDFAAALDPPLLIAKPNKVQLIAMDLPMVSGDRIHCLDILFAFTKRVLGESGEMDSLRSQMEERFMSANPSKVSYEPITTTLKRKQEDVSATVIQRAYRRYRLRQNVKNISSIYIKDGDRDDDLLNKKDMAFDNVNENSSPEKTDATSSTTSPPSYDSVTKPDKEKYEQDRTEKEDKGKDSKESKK

SMILES	pIC50 (hNav1.7)	pIC50 (hNav1.5)	pIC50 (hNav1.4)	Nav1.4/Nav1.7 (hNav1.4)	pIC50 (hNav1.3)
CC[C@H](C)[C@H](NC(=O)[C@@H](NC(=O)[C@H](CCCCN)NC(=O)[C@H](CCCNC(=N)N)NC(=O)[C@@H]1CSSC[C@@H]2NC(=O)[C@H](C)NC(=O)[C@H](CCCNC(=N)N)NC(=O)[C@H](CCCCN)NC(=O)[C@H](CO)NC(=O)[C@H](CC(=O)O)NC(=O)[C@@H]3CSSC[C@H](NC(=O)[C@H](CCCNC(N)=O)NC(=O)[C@H](CC(C)C)NC(=O)CNC(=O)[C@H](CCC(=O)O)NC(=O)[C@H](CSSC[C@H](NC(=O)[C@@H](N)Cc4ccc(O)cc4)C(=O)N[C@@H](CCC(N)=O)C(=O)N[C@@H](CCCCN)C(=O)N[C@@H](Cc4c[nH]c5ccccc45)C(=O)N[C@@H](CCSC)C(=O)N[C@@H](Cc4c[nH]c5ccccc45)C(=O)N[C@@H]([C@@H](C)O)C(=O)N3)NC2=O)C(=O)N[C@@H](CCCCN)C(=O)N[C@@H](CC(C)C)C(=O)N[C@@H](Cc2c[nH]c3ccccc23)C(=O)N1)[C@@H](C)CC)C(N)=O [compound 122]	7.40	5.17	6.30	15	6.46
CCC[C@@H]1NC(=O)[C@H](CC(C)C)NC(=O)CNC(=O)[C@H](CCC(=O)O)NC(=O)[C@@H]2CSSC[C@H](NC(=O)[C@@H](N)Cc3ccc(O)cc3)C(=O)N[C@@H](CCC(N)=O)C(=O)N[C@@H](CCCCN)C(=O)N[C@@H](Cc3c[nH]c4ccccc34)C(=O)N[C@@H](CCSC)C(=O)N[C@@H](Cc3c[nH]c4ccccc34)C(=O)N[C@@H]([C@@H](C)O)C(=O)N[C@H]3CSSC[C@H](NC1=O)C(=O)N[C@@H](CCCCN)C(=O)N[C@@H](CC(C)C)C(=O)N[C@@H](Cc1c[nH]c4ccccc14)C(=O)N[C@H](C(=O)N[C@@H](CCCNC(=N)N)C(=O)N[C@@H](CCCCN)C(=O)N[C@H](C(=O)N[C@H](C(N)=O)[C@@H](C)CC)[C@@H](C)CC)CSSC[C@H](NC(=O)[C@H](C)NC(=O)[C@H](CCCNC(=N)N)NC(=O)[C@H](CCCCN)NC(=O)[C@H](CO)NC(=O)[C@H](CC(=O)O)NC3=O)C(=O)N2 [compound 123]	6.77	4.98	5.51	19	< 5.30
CC[C@H](C)[C@H](NC(=O)[C@@H](NC(=O)[C@H](CCCCN)NC(=O)[C@H](CCCNC(=N)N)NC(=O)[C@@H]1CSSC[C@@H]2NC(=O)[C@H](C)NC(=O)[C@H](CCCNC(=N)N)NC(=O)[C@H](CCCCN)NC(=O)[C@H](CO)NC(=O)[C@H](CC(=O)O)NC(=O)[C@@H]3CSSC[C@H](NC(=O)[C@H](CO)NC(=O)[C@H](CC(C)C)NC(=O)CNC(=O)[C@H](CCC(=O)O)NC(=O)[C@H](CSSC[C@H](NC(=O)[C@@H](N)Cc4ccc(O)cc4)C(=O)N[C@@H](CCC(N)=O)C(=O)N[C@@H](CCCCN)C(=O)N[C@@H](Cc4c[nH]c5ccccc45)C(=O)N[C@@H](CCSC)C(=O)N[C@@H](Cc4c[nH]c5ccccc45)C(=O)N[C@@H]([C@@H](C)O)C(=O)N3)NC2=O)C(=O)N[C@@H](CCCCN)C(=O)N[C@@H](CC(C)C)C(=O)N[C@@H](Cc2c[nH]c3ccccc23)C(=O)N1)[C@@H](C)CC)C(N)=O [compound 125]	7.52	5.04	6.40	17	6.54
CC[C@H](C)[C@H](NC(=O)[C@H](CCC(=O)O)NC(=O)[C@H](CCCCN)NC(=O)[C@H](CCCNC(=N)N)NC(=O)[C@@H]1CSSC[C@@H]2NC(=O)[C@H](C)NC(=O)[C@H](CCCNC(=N)N)NC(=O)[C@H](CCCCN)NC(=O)[C@H](CO)NC(=O)[C@H](CC(=O)O)NC(=O)[C@@H]3CSSC[C@H](NC(=O)[C@H](CCC(=O)O)NC(=O)[C@H](CC(C)C)NC(=O)CNC(=O)[C@H](CCC(=O)O)NC(=O)[C@H](CSSC[C@H](NC(=O)[C@@H](N)Cc4ccc(O)cc4)C(=O)N[C@@H](CCC(N)=O)C(=O)N[C@@H](CCCCN)C(=O)N[C@@H](Cc4c[nH]c5ccccc45)C(=O)N[C@@H](CCSC)C(=O)N[C@@H](Cc4c[nH]c5ccccc45)C(=O)N[C@@H]([C@@H](C)O)C(=O)N3)NC2=O)C(=O)N[C@@H](CCCCN)C(=O)N[C@@H](CC(C)C)C(=O)N[C@@H](Cc2c[nH]c3ccccc23)C(=O)N1)C(N)=O [compound 126]	6.02 and 5.84	4.80 and 5.12	< 5.30	5 and 3	< 5.30
CC[C@H](C)[C@H](NC(=O)[C@H](Cc1ccc(C(=O)O)cc1)NC(=O)[C@H](CCCCN)NC(=O)[C@H](CCCNC(=N)N)NC(=O)[C@@H]1CSSC[C@@H]2NC(=O)[C@H](C)NC(=O)[C@H](CCCNC(=N)N)NC(=O)[C@H](CCCCN)NC(=O)[C@H](CO)NC(=O)[C@H](CC(=O)O)NC(=O)[C@@H]3CSSC[C@H](NC(=O)[C@H](CCC(=O)O)NC(=O)[C@H](CC(C)C)NC(=O)CNC(=O)[C@H](CCC(=O)O)NC(=O)[C@H](CSSC[C@H](NC(=O)[C@@H](N)Cc4ccc(O)cc4)C(=O)N[C@@H](CCC(N)=O)C(=O)N[C@@H](CCCCN)C(=O)N[C@@H](Cc4c[nH]c5ccccc45)C(=O)N[C@@H](CCSC)C(=O)N[C@@H](Cc4c[nH]c5ccccc45)C(=O)N[C@@H]([C@@H](C)O)C(=O)N3)NC2=O)C(=O)N[C@@H](CCCCN)C(=O)N[C@@H](CC(C)C)C(=O)N[C@@H](Cc2c[nH]c3ccccc23)C(=O)N1)C(N)=O [compound 127]	5.63	4.78	< 5.30	2	< 5.30
CC[C@H](C)[C@H](NC(=O)[C@H](CC(=O)O)NC(=O)[C@H](CCCCN)NC(=O)[C@H](CCCNC(=N)N)NC(=O)[C@@H]1CSSC[C@@H]2NC(=O)[C@H](C)NC(=O)[C@H](CCCNC(=N)N)NC(=O)[C@H](CCCCN)NC(=O)[C@H](CO)NC(=O)[C@H](CC(=O)O)NC(=O)[C@@H]3CSSC[C@H](NC(=O)[C@H](CCC(=O)O)NC(=O)[C@H](CC(C)C)NC(=O)CNC(=O)[C@H](CCC(=O)O)NC(=O)[C@H](CSSC[C@H](NC(=O)[C@@H](N)Cc4ccc(O)cc4)C(=O)N[C@@H](CCC(N)=O)C(=O)N[C@@H](CCCCN)C(=O)N[C@@H](Cc4c[nH]c5ccccc45)C(=O)N[C@@H](CCSC)C(=O)N[C@@H](Cc4c[nH]c5ccccc45)C(=O)N[C@@H]([C@@H](C)O)C(=O)N3)NC2=O)C(=O)N[C@@H](CCCCN)C(=O)N[C@@H](CC(C)C)C(=O)N[C@@H](Cc2c[nH]c3ccccc23)C(=O)N1)C(N)=O [compound 128]	5.87	4.86	< 5.30	4	< 5.30
CC[C@H](C)[C@H](NC(=O)[C@H](CC(C)C)NC(=O)[C@H](CCCCN)NC(=O)[C@H](CCCNC(=N)N)NC(=O)[C@@H]1CSSC[C@@H]2NC(=O)[C@H](C)NC(=O)[C@H](CCCNC(=N)N)NC(=O)[C@H](CCCCN)NC(=O)[C@H](CO)NC(=O)[C@H](CC(=O)O)NC(=O)[C@@H]3CSSC[C@H](NC(=O)[C@H](CCC(=O)O)NC(=O)[C@H](CC(C)C)NC(=O)CNC(=O)[C@H](CCC(=O)O)NC(=O)[C@H](CSSC[C@H](NC(=O)[C@@H](N)Cc4ccc(O)cc4)C(=O)N[C@@H](CCC(N)=O)C(=O)N[C@@H](CCCCN)C(=O)N[C@@H](Cc4c[nH]c5ccccc45)C(=O)N[C@@H](CCSC)C(=O)N[C@@H](Cc4c[nH]c5ccccc45)C(=O)N[C@@H]([C@@H](C)O)C(=O)N3)NC2=O)C(=O)N[C@@H](CCCCN)C(=O)N[C@@H](CC(C)C)C(=O)N[C@@H](Cc2c[nH]c3ccccc23)C(=O)N1)C(N)=O [compound 132]	6.39	5.17	< 5.30	12	< 5.30
